The test system of test [1] is TAR-TAT complex formation in HL3T1 cells. Nature of the test: In vivo assay: inhibition of TAR-TAT complex formation in HL3T1 cells (HIV-1 LTR promoter, CAT reporter). To be noted: compounds of formula V transfected into HL3T1 cells with pSV2Tat and pAL, CAT and luciferase read after 48 hour, read-out: Kd (nM), binding constants. It is filed as cell-based. The method, then:
Binding of compounds of formula I and V to TAR RNA was measured by evaluating their inhibition of TAR-TAT complex formation in the presence of increasing levels of the compound to be tested. The compounds of formula I were tested in an in vitro assay; the compounds of formula V were tested in an in vivo assay.
Cells were grown in 2 mL of Dulbecco's modified Eagle medium (DMEM) supplemented with 10% fetal calf serum in 60 mm dishes at 37° C. in 5% CO2 in a tissue culture incubator. Cells were refreshed by 2 mL DMEM before transfection. Transfection was started by dropwise addition of 250 μL 2×HeBS (Hepes-buffered saline) and then keeping at room temperature for 10 minutes. Approximately 10 μg of plasmids (pSV2Tat and pAL) and increasing amounts of the Compounds DV, DW, DX or DY were transfected in the presence of CaCl2 (final concentration 125 mM) and the cells were incubated for 4 hour at 37° C. in a tissue culture incubator. The medium was then discarded and the cells were subjected to glycerol (1.5 mL of 15%) shock for 45 seconds. Finally the cells were washed twice with PBS (5 mL) and were grown in 3 mL DMEM. The cells were harvested after 48 hour post-transfection with changing with fresh DMEM at 24 hours and lysed in reporter lysis buffer (Promega). Aliquots were used for CAT and luciferase assays. Both activities were normalized to protein concentration determined by using a modified Bradford assay (Bio-Rad).

Test [2] deals with TAR RNA. To be noted: TAT binding to TAR RNA, Dingwall et al. (1990); cited from earlier work.
Test [3] has as its target TAR RNA. Nature of the test: In vitro binding of resin-bound compounds to TAR RNA (OD260 of unbound RNA). Details: species or system HIV. To be noted: in vitro assay; compounds of formula I on TentaGel beads incubated with TAR RNA overnight at 4° C. in TK buffer; read-out: Kd (nM), binding constants. The essentials:
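Ten beads of TentaGel-bound compound in TK buffer were incubated overnight at 4 °C with T7-transcribed 29-residue TAR RNA ([…]). Unbound RNA in the supernatant was quantified by OD260. KD was calculated from equilibrium RNA concentrations assuming simple bimolecular binding.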

Data on 25 compounds can be found in patent US6583309B1 (University of Medicine and Dentistry of New Jersey, priority 1999, dated 2003).

Where two headings read alike, the source gives them in different places.

Usually Kd stands for the equilibrium constant for the complex coming apart.

Take `N=C(N)NCCC[C@@H](CNC(=O)N[C@@H](CCCNC(=N)N)CNC(=O)N[C@H](CN)CCCCN)NC(N)=O`: the Kd in test [1] worked out at 500 nM.
For the compound “TAT: virally encoded HIV trans-acting regulatory protein that specifically recognizes TAR RNA”, the Kd at TAR RNA [2] was 12 nM.
As to `N=C(N)NCCC[C@@H](CNC(=O)N[C@@H](CCCCN)CNC(=O)N[C@H](CN)CCCNC(=N)N)NC(N)=O` [Compound DV, 1-{5-Amino-1-[3-(1-aminomethyl-4-guanidino-butyl)-ureidomethyl]-pentyl}-3-(5-guanidino-2-ureido-pentyl)-urea], the Kd in test [1] came out at 500 nM.
Still for that read-out and setting: the result for `N=C(N)NCCC[C@@H](CNC(=O)N[C@@H](CCCCN)CNC(=O)N[C@H](CN)CCCCN)NC(N)=O` [Compound DW, 1-{5-Amino-1-[3-(5-amino-1-aminomethyl-pentyl)-ureidomethyl]-pentyl}-3-(5-guanidino-2-ureido-pentyl)-urea] reads 50 nM.
`NCCCC[C@H](COC(N)=O)NC(=O)OC[C@H](CCCCN)NC(=O)[C@@H](N)CCCCN` [Compound AL, Carbamic acid 6-amino-2-[6-amino-2-(2,6-diamino-hexanoylamino)-hexyloxycarbonylamino]-hexyl ester]: the Kd on TAR RNA [3] is 2720 nM.
Still for that read-out and setting: next, `NCCCCCCCN(CC(=O)N[C@H](CCCCN)COC(N)=O)C(=O)OC[C@H](N)CCC(N)=O` [Compound BS, Carbamic acid 6-amino-2-{2-[(2-amino-4-carbamoyl-butoxycarbonyl)-(7-amino-heptyl)-amino]-acetylamino}-hexyl ester]: 639 nM; `NCCCC[C@@H](COC(N)=O)NC(=O)CN(CCCCN)C(=O)OC[C@H](N)CCC(N)=O` [Compound DA, Carbamic acid 6-amino-2-{2-[(4-amino-butyl)-(2-amino-4-carbamoyl-butoxycarbonyl)-amino]-acetylamino}-hexyl ester]: 301 nM.
Consider `N=C(N)NCCC[C@@H](CNC(=O)N[C@@H](CCCCN)CNC(=O)NCCN)NC(N)=O` [Compound DY], for which the Kd in test [1] was found to be 150 nM.
Turning to `NCCCC[C@H](N)COC(=O)N[C@@H](CCCCN)COC(=O)N[C@@H](CCCCN)COC(N)=O` (stereo in doubt) [Compound CJ, Carbamic acid 6-amino-2-[6-amino-2-(2,6-diamino-hexyloxycarbonylamino)-hexyloxycarbonylamino]-hexyl ester], the Kd at TAR RNA [3] stood at 1260 nM.
The same measure, in the same setting: the result for `N=C(N)NCCC[C@H](N)COC(=O)N(CCCCN)CC(=O)N[C@H](CCCCN)COC(N)=O` [Compound AZ, Carbamic acid 6-amino-2-{2-[(4-amino-butyl)-(2-amino-5-guanidino-pentyloxycarbonyl)-amino]-acetylamino}-hexyl ester] reads 147 nM.
On to `N=C(N)NCCC[C@H](N)COC(=O)N[C@H](CCCCN)COC(=O)N[C@@H](CCCCN)COC(N)=O` [Compound CH, Carbamic acid 6-amino-2-[6-amino-2-(2-amino-5-guanidino-pentyloxycarbonylamino)-hexyloxycarbonylamino]-hexyl ester], for which the Kd on TAR RNA [3] is 865 nM.
`NCCCCCCCN(CC(=O)N[C@H](CCCCN)COC(N)=O)C(=O)OC[C@@H](N)CCCCN` [Compound BK, Carbamic acid 6-amino-2-{2-[(7-amino-heptyl)-(2,6-diamino-hexyloxycarbonyl)-amino]-acetylamino}-hexyl ester]: the Kd on TAR RNA [3] is 930 nM.
With `NCCCC[C@@H](N)COC(=O)N[C@@H](CCCCN)C(=O)N[C@H](CCCCN)COC(N)=O` [Compound BU, Carbamic acid 6-amino-2-[6-amino-2-(2,6-diamino-hexyloxycarbonylamino)-hexanoylamino]-hexyl ester], on TAR RNA [3], the Kd worked out at 1420 nM.
Still for that read-out and setting: next, `NCCCCCNCC(=O)N[C@@H](CCCCN)C(=O)N[C@H](CCCCN)COC(N)=O` [Compound BX, Carbamic acid 6-amino-2-{6-amino-2-[2-(5-amino-pentylamino)-acetylamino]-hexanoylamino}-hexyl ester]: 202 nM.
On the same count and under the same terms, next, `NCCCC[C@@H](N)COC(=O)N(CCCCN)CC(=O)N[C@H](CCCCN)COC(N)=O` [Compound AT, Carbamic acid 6-amino-2-{2-[(4-amino-butyl)-(2,6-diamino-hexyloxycarbonyl)-amino]-acetylamino}-hexyl ester]: 165 nM; `NCCCCCNCC(=O)N[C@@H](CCCCN)COC(=O)N[C@H](CCCCN)COC(N)=O` [Compound AN, Carbamic acid 6-amino-2-{6-amino-2-[2-(5-amino-pentylamino)-acetylamino]-hexyloxycarbonylamino}-hexyl ester]: 183 nM; `NCCCCCN(CC(=O)N[C@@H](CCCCN)COC(N)=O)C(=O)OC[C@@H](N)CCCCN` [Compound DB, Carbamic acid 6-amino-2-{2-[(5-amino-pentyl)-(2,6-diamino-hexyloxycarbonyl)-amino]-acetylamino}-hexyl ester]: 256 nM.
Same read-out and setting: the result for `NCCCCCCCN(CC(=O)N[C@H](CCCCN)COC(N)=O)C(=O)CNCCCCCN` [Compound BO, Carbamic acid 6-amino-2-(2-{(7-amino-heptyl)-[2-(5-amino-pentylamino)-acetyl]-amino}-acetylamino)-hexyl ester] reads 183 nM; that for `NCCCCCN(CC(=O)N[C@@H](CCCCN)COC(N)=O)C(=O)OC[C@H](N)CCC(N)=O` [Compound DJ, Carbamic acid 6-amino-2-{2-[(2-amino-4-carbamoyl-butoxycarbonyl)-(5-amino-pentyl)-amino]-acetylamino}-hexyl ester], 603 nM.
Consider `NCCCCCCCNCC(=O)N(CCCCCCCN)CC(=O)N[C@@H](CCCCN)COC(N)=O` [Compound DP, Carbamic acid 6-amino-2-(2-{(7-amino-heptyl)-[2-(7-amino-heptylamino)-acetyl]-amino}-acetylamino)-hexyl ester], for which the Kd at TAR RNA [3] turned out to be 774 nM.
Same read-out and setting: next, `NCCCC[C@@H](N)COC(=O)N[C@@H](CCCCN)COC(=O)N[C@H](CCCCN)COC(N)=O` [Compound AK, Carbamic acid 6-amino-2-[6-amino-2-(2,6-diamino-hexyloxycarbonylamino)-hexyloxycarbonylamino]-hexyl ester]: 1720 nM.
Take `NCCCCCN(CC(=O)N[C@@H](CCCCN)COC(N)=O)C(=O)[C@H](N)CCCCN` [Compound DE, Carbamic acid 6-amino-2-{2-[(5-amino-pentyl)-(2,6-diamino-hexanoyl)-amino]-acetylamino}-hexyl ester]: the Kd on TAR RNA [3] was determined as 120 nM.
Still for that read-out and setting: next, `NCCCCCCCN(CC(=O)N[C@@H](CCCCN)COC(N)=O)C(=O)OC[C@H](N)CCC(N)=O` [Compound DS, Carbamic acid 6-amino-2-{2-[(2-amino-4-carbamoyl-butoxycarbonyl)-(7-amino-heptyl)-amino]-acetylamino}-hexyl ester]: 3150 nM; `NCCCC[C@H](COC(N)=O)NC(=O)OC[C@H](CCCCN)NC(=O)OC[C@H](N)CCC(N)=O` [Compound AR, Carbamic acid 6-amino-2-[6-amino-2-(2-amino-4-carbamoyl-butoxycarbonylamino)-hexyloxycarbonylamino]-hexyl ester]: 376 nM; `NCCCCCCCN(CC(=O)N[C@@H](CCCCN)COC(N)=O)C(=O)OC[C@H](N)CCCCN` [Compound DL, Carbamic acid 6-amino-2-{2-[(7-amino-heptyl)-(2,6-diamino-hexyloxycarbonyl)-amino]-acetylamino}-hexyl ester]: 678 nM.
